Test results from US4471116A, “Substituted (10H-phenothiazin-10-L)-propyl-1-piperazines” (Hoffmann-La Roche Inc., priority 1982, dated 1984).
Where two headings read alike, the source gives them in different places.

Experiments:
avoidance behavior = experiment: Discrete Avoidance - Rats (avoidance block / escape block); assay type: in vivo, rat; conditions: for Discrete Avoidance, % Block: Rats, 40 mg/kg, oral
Excerpt: For example, by one procedure, trained rats are placed in experimental chambers equipped with a response lever, a steel grid floor for delivery of electric shock and a loudspeaker for presentation of auditory stimuli. […] The rats can terminate a trial at any point by depression of the response lever. A response during the initial fifteen-second warning tone ends the trial before shock delivery and is considered an avoidance response, while a response occurring during shock delivery is an escape response. Trials are presented every two minutes during a one-hour test session (30 trials per session). […] Compounds are administered to a minimum of three to four rats at each dose level over a range of doses. Rats receive vehicle alone, during control sessions prior to drug administration. Each rat is tested daily or weekly, after a single drug administration, until avoidance behavior returns to pre-drug baseline levels. The session is divided into three consecutive twenty minute (ten trial) segments. Response counts are summed over all subjects at a given dose within each segment. […] This number is expressed as a percentage of the total trials within the segment. […] The lowest dose which produced a 20% block of escape responding (EBD 20) is read from a graphic dose-effect plot. In obtaining these values, percent effect is plotted against the log dose.

Pole-Climb Avoidance = experiment: Pole-Climb Avoidance, % Block; assay type: in vivo, rat; conditions: Rats, 40 mg/kg, oral
Continuous Avoidance [1] = experiment: Continuous Avoidance, % Decrease of Responding (Rats); assay type: in vivo, rat; conditions: 40 mg/kg, oral
Continuous Avoidance [2] = experiment: Continuous Avoidance (Squirrel Monkeys); assay type: in vivo, squirrel monkey; conditions: for Continuous Avoidance, % Decrease of Responding: Squirrel Monkeys, 5 mg/kg, oral
[3] = tested on: Apomorphine Induced Emesis; experiment: Apomorphine Induced Emesis antagonism (Dogs); assay type: in vivo, dog; conditions: for Apomorphine Induced Emesis % Antagonism: Dogs, 5 mg/kg, subcutaneous
Serum Prolactin = Serum Prolactin Levels (Rats); assay type: in vivo, rat; conditions: 15 mg/kg, oral
[4] = tested on: Amphetamine Induced Rotation; experiment: Amphetamine Induced Rotation antagonism (S. Nigra Lesioned Rats) / Rotation Antagonism; assay type: in vivo, rat; conditions: for Amphetamine Induced Rotation % Antagonism: S. Nigra Lesioned Rats, 40 mg/kg, oral
[5] = tested on: Confinement Motor Activity; experiment: Confinement Motor Activity; assay type: in vivo; conditions: 168 h; Rat, PO, 7 Days Post-Drug; read-out: Confinement Motor Activity DD50
[6] = biological target: T1, 3H--Spiroperidol Binding-Caudate (Rattus norvegicus, UniProt P61169); experiment: biochemical
T1 construct: from tissue; host or cells: caudate (brain)

[7] = tested on: Dopamine Turnover-Brain Caudate; experiment: Dopamine Turnover-Brain, Caudate; assay type: in vivo; conditions: Rat, 40 mg/kg PO, 7 Days Post-Drug
[8] = tested on: Dopamine Turnover-Brain Limbic and Remainder; experiment: Dopamine Turnover-Brain, Limbic and Remainder; assay type: in vivo; conditions: Rat, 40 mg/kg PO, 7 Days Post-Drug
[9] = biological target: T2, Dopamine Adenylate Cyclase (Rattus norvegicus, UniProt P18901); experiment: biochemical; conditions: in-vitro, read-out: Dopamine Adenylate Cyclase Inhibition-Limbic IC50
T2 construct: from tissue; host or cells: limbic brain tissue

Prolactin Secretion = Prolactin Secretion (in-vitro); assay type: cell-based; conditions: Rat, read-out: Prolactin Secretion ID50
[10] = Acute toxicity (LD50) in mice after a single dose; conditions: mouse, in vivo
revertant colonies = experiment: Ames procedure (mutagenicity)

T2 sequence (P18901 whole entry): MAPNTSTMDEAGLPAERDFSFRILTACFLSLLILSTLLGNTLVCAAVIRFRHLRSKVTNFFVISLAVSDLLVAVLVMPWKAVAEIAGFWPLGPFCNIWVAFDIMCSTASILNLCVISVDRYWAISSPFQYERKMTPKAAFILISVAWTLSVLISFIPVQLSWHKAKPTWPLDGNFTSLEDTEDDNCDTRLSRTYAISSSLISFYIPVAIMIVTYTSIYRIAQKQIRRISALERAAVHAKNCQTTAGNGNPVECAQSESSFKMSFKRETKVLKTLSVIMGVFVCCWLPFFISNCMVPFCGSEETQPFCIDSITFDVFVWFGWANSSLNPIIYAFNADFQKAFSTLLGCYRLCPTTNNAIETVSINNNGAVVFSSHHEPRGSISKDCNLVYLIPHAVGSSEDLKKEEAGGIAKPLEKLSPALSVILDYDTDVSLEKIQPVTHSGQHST
T1 sequence (P61169 whole entry): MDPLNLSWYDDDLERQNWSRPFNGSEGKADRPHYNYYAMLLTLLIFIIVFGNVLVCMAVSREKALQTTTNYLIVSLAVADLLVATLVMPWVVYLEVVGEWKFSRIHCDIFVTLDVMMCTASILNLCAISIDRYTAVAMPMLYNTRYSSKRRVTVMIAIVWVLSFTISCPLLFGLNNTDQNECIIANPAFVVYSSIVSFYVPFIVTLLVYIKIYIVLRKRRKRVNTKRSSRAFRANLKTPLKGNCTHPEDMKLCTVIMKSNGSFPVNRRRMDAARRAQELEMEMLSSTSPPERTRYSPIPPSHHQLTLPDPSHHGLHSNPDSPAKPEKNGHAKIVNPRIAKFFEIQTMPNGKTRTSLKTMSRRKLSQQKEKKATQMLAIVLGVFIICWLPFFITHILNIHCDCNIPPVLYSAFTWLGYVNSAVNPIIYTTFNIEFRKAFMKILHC

CC(C)NC[C@H](O)COc1ccc(OCCN2CCN(CCCN3c4ccccc4Sc4ccc(Cl)cc43)CC2)cc1.Cl.Cl.Cl [Compound A, (S)-1-(1-methylethylamino)-3-[4-[2-[4-[3-(2-chloro-10H-phenothiazin-10-yl)propyl]piperazine-1-yl]ethoxy]phenoxy]-2-propanol trihydrochloride]
Duration of Sig. Activity (avoidance behavior; 40 mg/kg po): 8 weeks | Time of Peak Effect (avoidance behavior; 40 mg/kg po): 2 to 10 days | ED50 (avoidance behavior; 168 h, Rat, PO, 7 Days Post-Drug, read-out: Discrete Avoidance ABD50): 19 mg/kg | EBD20/ABD50 Ratio (avoidance behavior; Rat, PO, 7 Days Post-Drug): > 2.1 | Discrete Avoidance, % Block (avoidance behavior; single administration, 1-4 hours): 40% | Discrete Avoidance, % Block (avoidance behavior; 1 week): 84% | Discrete Avoidance, % Block (avoidance behavior; 2-4 hours): 78% | Discrete Avoidance, % Block (avoidance behavior; 2 weeks): 80% | Discrete Avoidance, % Block (avoidance behavior; 3 weeks): 84% | Discrete Avoidance, % Block (avoidance behavior; 4 weeks): 82% | Discrete Avoidance, % Block (avoidance behavior; 5 weeks): 56% | Discrete Avoidance, % Block (avoidance behavior; 6 weeks): 50% | Discrete Avoidance, % Block (avoidance behavior; 7 weeks): 31% | Discrete Avoidance, % Block (avoidance behavior; 8 weeks): 30% | inhibition in vivo at 40 mg/kg (avoidance behavior; Rattus norvegicus, 1 h, 40 mg/kg po, 60 min. post-drug, read-out: Percentage Block of Avoidance, 60 min. post-drug): 40% | ED50 (avoidance behavior; Rattus norvegicus, po, 7-10 days after administration, read-out: ABD50): 13.5 mg/kg | inhibition in vivo at 40 mg/kg (avoidance behavior; Rattus norvegicus, 40 mg/kg po, 24 hrs. post-drug, read-out: Percentage Block of Avoidance, 24 hrs. post-drug): 77% | inhibition in vivo at 40 mg/kg (avoidance behavior; Rattus norvegicus, 40 mg/kg po, at the indicated duration, read-out: Avoidance block at Duration of Sig. Activity (AB)): 30% | inhibition in vivo at 40 mg/kg (avoidance behavior; Rattus norvegicus, 40 mg/kg po, at time of peak effect, read-out: Avoidance block at Time of Peak Effect (AB)): 90% | duration of neuroleptic effect (in words) (avoidance behavior; discrete avoidance procedure): several weeks | time of maximum neuroleptic activity after administration (avoidance behavior; p.o.): 7 to 10 days | Pole-Climb Avoidance, % Block (Pole-Climb Avoidance; 1-4 hours): 30% | Pole-Climb Avoidance, % Block (Pole-Climb Avoidance; 1 week): 50% | Pole-Climb Avoidance, % Block (Pole-Climb Avoidance; 2 weeks): 44% | Pole-Climb Avoidance, % Block (Pole-Climb Avoidance; 3 weeks): 11% | Continuous Avoidance, % Decrease of Responding (Continuous Avoidance [1]; 1-4 hours): 0% | Continuous Avoidance, % Decrease of Responding (Continuous Avoidance [1]; 1 week): 97% | Continuous Avoidance, % Decrease of Responding (Continuous Avoidance [1]; 2-4 hours): 59% | Continuous Avoidance, % Decrease of Responding (Continuous Avoidance [1]; 2 weeks): 96% | Continuous Avoidance, % Decrease of Responding (Continuous Avoidance [1]; 3 weeks): 93% | Continuous Avoidance, % Decrease of Responding (Continuous Avoidance [1]; 4 weeks): 84% | Continuous Avoidance, % Decrease of Responding (Continuous Avoidance [1]; 5 weeks): 82% | Continuous Avoidance, % Decrease of Responding (Continuous Avoidance [1]; 6 weeks): 55% | Continuous Avoidance, % Decrease of Responding (Continuous Avoidance [1]; 7 weeks): 48% | Continuous Avoidance, % Decrease of Responding (Continuous Avoidance [1]; 8 weeks): 32% | minimal effective dose (Continuous Avoidance [2]; Primates, 168 h, Squirrel Monkey, PO, 7 Days Post-Drug, read-out: Continuous Avoidance MED Shocks): < 5 mg/kg | Continuous Avoidance, % Decrease of Responding (Continuous Avoidance [2]; 1-4 hours): 0% | Continuous Avoidance, % Decrease of Responding (Continuous Avoidance [2]; 1 week): 35% | Continuous Avoidance, % Decrease of Responding (Continuous Avoidance [2]; 2-4 hours): 15% | Continuous Avoidance, % Decrease of Responding (Continuous Avoidance [2]; 2 weeks): 37% | Continuous Avoidance, % Decrease of Responding (Continuous Avoidance [2]; 3 weeks): 24% | ED50 ([3]; Canis lupus familiaris, 168 h, Dog, SC, 7 Days Post-Drug, read-out: Anti-Apomorphine Emesis ED50): < 5 mg/kg | Apomorphine Induced Emesis % Antagonism ([3]; 1-4 hours): 93% | Apomorphine Induced Emesis % Antagonism ([3]; 1 week): 100% | Apomorphine Induced Emesis % Antagonism ([3]; 2-4 hours): 100% | Apomorphine Induced Emesis % Antagonism ([3]; 2 weeks): 100% | Apomorphine Induced Emesis % Antagonism ([3]; 3 weeks): 100% | Apomorphine Induced Emesis % Antagonism ([3]; 4 weeks): 100% | Apomorphine Induced Emesis % Antagonism ([3]; 5 weeks): 100% | Apomorphine Induced Emesis % Antagonism ([3]; 6 weeks): 100% | Apomorphine Induced Emesis % Antagonism ([3]; 7 weeks): 56% | Apomorphine Induced Emesis % Antagonism ([3]; 8 weeks): 40% | Serum Prolactin Levels % Increase (Serum Prolactin; 1-4 hours): 215% | Serum Prolactin Levels % Increase (Serum Prolactin; 1 week): 525% | Serum Prolactin Levels % Increase (Serum Prolactin; 2-4 hours): 97% | Serum Prolactin Levels % Increase (Serum Prolactin; 3 weeks): 251% | Serum Prolactin Levels % Increase (Serum Prolactin; 4 weeks): 56% | ED50 ([4]; 168 h, Rat, PO, 7 Days Post-Drug): < 15 mg/kg | Amphetamine Induced Rotation % Antagonism ([4]; 1-4 hours): 14% | Amphetamine Induced Rotation % Antagonism ([4]; 1 week): 97% | Amphetamine Induced Rotation % Antagonism ([4]; 2 weeks): 95% | Amphetamine Induced Rotation % Antagonism ([4]; 3 weeks): 87% | Amphetamine Induced Rotation % Antagonism ([4]; 4 weeks): 87% | Amphetamine Induced Rotation % Antagonism ([4]; 5 weeks): 62% | Amphetamine Induced Rotation % Antagonism ([4]; 6 weeks): 28% | Amphetamine Induced Rotation % Antagonism ([4]; 7 weeks): 4% | ED50 [5]: 19.6 mg/kg | IC50 [6]: 1.8 nM | Dopamine Turnover-Brain, Caudate [7]: Signif. .uparw. | Dopamine Turnover-Brain, Limbic and Remainder [8]: Not signif. | IC50 [9]: 500 nM | IC50 (Prolactin Secretion): 15 nM | LD50 at 24 h ([10]; ip, 24 hours): 77.5 mg/kg | LD50 at 168 h ([10]; po, 7 days): 45 mg/kg | revertant colonies (Ames) (revertant colonies): increased revertant colonies at the highest concentration tested
